Measured values from patent publication US9394250B2, “Substituted pyrrolidines as factor xia inhibitors for the treatment thromboembolic diseases” (ONO PHARMACEUTICAL CO., LTD., priority 2012, dated 2016).
Counter-ions that a name gives are not always drawn.

Columns and labels:
Type in all cases: biochemical
human thrombin = human thrombin (Homo sapiens (Human), UniProt P00734); assay: Thrombin enzyme activity, chromogenic substrate S-2366; conditions: human thrombin 0.12 U/mL, 300 μM S-2366, pH7.4; read-out: In vitro Thrombin inhibitory activity IC50
Description: (§1) Inhibitory activities of compounds of the present invention against factor XIa, Xa, XIIa, IXa, VIIa, plasma kallikrein or thrombin were evaluated using appropriate purified proteases and synthetic substrates. The rate of hydrolysis of the chromogenic substrate by the relevant protease was continuously measured at 405 nm. Inhibitory activity against each enzyme was calculated as % inhibition using the equation described below. % Inhibition=[[(rate without compound)−(rate with compound)]/(rate without compound)]×100%. Each half maximal inhibitory concentration (IC50) value was determined by plotting the concentration of compound of the invention against the % inhibition. (1-1) Factor XIa Enzyme Activity
(§2) Human Factor Xa (American Diagnostica Inc.) and human thrombin (Sigma) activities were measured at the enzyme concentrations of 0.18 U/mL and 0.12 U/mL, respectively in the same buffer containing 150 mM NaCl, 2 mg/mL PEG6000, 50 mM Tris-HCl (pH7.4), except that the reactions were started with 300 μM S-2222 ([…], Chromogenix) and 300 μM S-2366, respectively.

Human Factor XIa = Human Factor XIa (Homo sapiens (Human), UniProt P03951); assay: Factor XIa enzyme activity, chromogenic substrate S-2366; conditions: purified human Factor XIa 0.1 U/mL, 300 μM S-2366, pH7.4; read-out: In vitro FXIa inhibitory activity IC50
Chain of Human Factor XIa (P03951 388-625): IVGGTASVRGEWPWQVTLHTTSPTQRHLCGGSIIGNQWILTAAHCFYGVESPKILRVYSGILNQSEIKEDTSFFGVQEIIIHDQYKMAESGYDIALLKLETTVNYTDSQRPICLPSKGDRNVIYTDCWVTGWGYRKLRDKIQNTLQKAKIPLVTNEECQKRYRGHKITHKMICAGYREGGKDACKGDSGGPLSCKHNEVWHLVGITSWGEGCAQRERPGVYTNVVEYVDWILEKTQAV
Chain of Human Factor XIa (P03951 19-387 partner): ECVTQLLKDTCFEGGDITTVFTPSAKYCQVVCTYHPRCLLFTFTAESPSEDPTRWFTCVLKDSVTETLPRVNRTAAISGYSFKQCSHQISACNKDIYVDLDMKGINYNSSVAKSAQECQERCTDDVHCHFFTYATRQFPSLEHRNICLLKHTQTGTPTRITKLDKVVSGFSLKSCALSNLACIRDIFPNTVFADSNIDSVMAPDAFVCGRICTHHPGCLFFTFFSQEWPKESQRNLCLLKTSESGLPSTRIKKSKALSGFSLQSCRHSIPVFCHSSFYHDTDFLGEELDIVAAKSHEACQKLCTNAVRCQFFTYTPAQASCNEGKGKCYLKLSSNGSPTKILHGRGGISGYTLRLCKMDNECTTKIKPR
Description: as §1
Human Factor XIa (Haematologic Technologies Inc.) activity was measured at an enzyme concentration of 0.1 U/mL in 150 mM NaCl, 5 mM KCl, 1 mg/mL PEG6000, 50 mM HEPES-NaOH (pH7.4) with 300 μM S-2366 (pyroGlu-Pro-Arg-pNA, Chromogenix).

Human Factor Xa = Human Factor Xa (Homo sapiens (Human), UniProt P00742); assay: Factor Xa enzyme activity, chromogenic substrate S-2222; conditions: human Factor Xa 0.18 U/mL, 300 μM S-2222, pH7.4; read-out: In vitro FXa inhibitory activity IC50
Chain of Human Factor Xa (P00742 235-488): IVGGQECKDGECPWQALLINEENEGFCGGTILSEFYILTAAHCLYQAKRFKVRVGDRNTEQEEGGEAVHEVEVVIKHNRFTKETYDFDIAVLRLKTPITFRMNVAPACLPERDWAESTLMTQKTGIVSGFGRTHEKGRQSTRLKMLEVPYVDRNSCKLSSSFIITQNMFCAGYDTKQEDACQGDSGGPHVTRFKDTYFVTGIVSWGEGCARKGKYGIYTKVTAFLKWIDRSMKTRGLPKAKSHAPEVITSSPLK
Chain of Human Factor Xa (P00742 41-179 partner): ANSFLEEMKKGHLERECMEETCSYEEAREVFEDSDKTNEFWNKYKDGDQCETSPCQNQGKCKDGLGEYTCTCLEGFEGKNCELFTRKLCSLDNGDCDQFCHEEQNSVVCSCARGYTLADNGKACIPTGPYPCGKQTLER
Description: as §1, §2

Row | Structure (SMILES) | IC50 (human thrombin) | IC50 (Human Factor XIa) | IC50 (Human Factor Xa)
1 | COC(=O)Nc1ccc(-c2[nH]c([C@@H]3C[C@H](N4CCN(S(C)(=O)=O)CC4)CN3C(=O)C3CCN(C(=N)N)CC3)nc2Cl)cc1 [Example 99, methyl [4-(2-{(2S,4S)-1-(1-carbamimidoyl-4-piperidinyl)carbonyl]-4-[4-(methylsulfonyl)-1-piperazinyl-2-pyrrolidinyl}-4-chloro-1H-imidazol-5-yl)phenyl]carbamate trihydrochloride] | 84 µM | 0.0012 µM | > 100 µM
2 | Cn1cc(Cl)c2c(F)c(C(=O)N3C[C@@H](C4CCN(S(C)(=O)=O)CC4)C[C@H]3C(=O)Nc3ccc(C(=O)O)cc3)ccc21 [Example 93, 4-[({(2S,4R)-1-[(3-chloro-4-fluoro-1-methyl-1H-indol-5-yl)carbonyl]-4-[1-(methylsulfonyl)-4-piperidinyl]-2-pyrrolidinyl}carbonyl)amino]benzoic acid] | > 100 µM | 0.018 µM | > 100 µM
3 | CS(=O)(=O)N1CCN([C@H]2C[C@@H](C(=O)Nc3ccc(C(=O)O)cc3)N(C(=O)c3ccc(C(=N)N)cc3)C2)CC1 [Example 20, 4-[({(2S,4S)-1-(4-carbamimidoylbenzoyl)-4-[4-(methylsulfonyl)-1-piperazinyl]-2-pyrrolidinyl}carbonyl)amino]benzoic acid bis(trifluoroacetate)] | > 100 µM | 0.0032 µM | > 100 µM
4 | O=C(Nc1ccccc1)[C@@H]1C[C@H](N2CCN(S(=O)(=O)c3ccccc3)CC2)CN1C(=O)/C=C/c1cc(Cl)ccc1-n1cnnn1 [Example 39, (2S,4S)-1-{(2E)-3-[5-chloro-2-(1H-tetrazol-1-yl)phenyl]-2-propenoyl}-N-phenyl-4-[4-(phenylsulfonyl)-1-piperazinyl]-2-pyrrolidinecarboxamide] | > 100 µM | 0.078 µM | > 100 µM
5 | NC[C@H]1CC[C@H](C(=O)N2C[C@@H](N3CCN(S(=O)(=O)C4CC4)CC3)C[C@H]2C(=O)Nc2ccc(C(=O)O)cc2)CC1 [Example 55, 4-[({(2S,4S)-1-{[trans-4-(aminomethyl)cyclohexyl]carbonyl}-4-[4-(cyclopropylsulfonyl)-1-piperazinyl]-2-pyrrolidinyl}carbonyl)amino]benzoic acid bis(trifluoroacetate)] | > 100 µM | 0.014 µM | > 100 µM
6 | COC(=O)Nc1ccc(-c2[nH]c([C@@H]3C[C@H](C4CCN(S(C)(=O)=O)CC4)CN3C(=O)[C@H]3CC[C@H](CN)CC3)nc2Cl)cc1 [Example 96, methyl [4-(2-{(2S,4R)-1-{[4-(aminomethyl)cyclohexyl]carbonyl}-4-[1-(methylsulfonyl)-4-piperidinyl]-2-pyrrolidinyl}-4-chloro-1H-imidazol-5-yl)phenyl]carbamate bis(trifluoroacetate)] | > 100 µM | 0.0042 µM | > 100 µM
7 | COC(=O)Nc1ccc(-c2cnc([C@@H]3C[C@H](C4CCN(S(C)(=O)=O)CC4)CN3C(=O)c3ccc(C(=N)N)cc3)[nH]2)cc1 [Example 73, methyl [4-(2-{(2S,4R)-1-(4-carbamimidoylbenzoyl)-4-[1-(methylsulfonyl)-4-piperidinyl]-2-pyrrolidinyl}-1H-imidazol-5-yl)phenyl]carbamate dihydrochloride] | 37 µM | 0.0044 µM | > 100 µM
8 | COC(=O)Nc1ccc(-c2cnc([C@@H]3C[C@H](N4CCN(S(C)(=O)=O)CC4)CN3C(=O)C3CCN(C(=N)N)CC3)[nH]2)cc1 [Example 98, methyl [4-(2-(2S,4S)-1-[(1-carbamimidoyl-4-piperidinyl)carbonyl]-4-[4-(methylsulfonyl)-1-piperazinyl]-2-pyrrolidinyl-1H-imidazol-5-yl)phenyl]carbamate trihydrochloride] | > 100 µM | 0.0023 µM | > 100 µM
9 | COC(=O)Nc1ccc(-c2[nH]c([C@@H]3C[C@H](C4CCN(S(C)(=O)=O)CC4)CN3C(=O)C3CCN(C(=N)N)CC3)nc2Cl)cc1 [Example 71, methyl [4-(2-{(2S,4R)-1-[(1-carbamimidoyl-4-piperidinyl)carbonyl]-4-[1-(methylsulfonyl)-4-piperidinyl]-2-pyrrolidinyl}-4-chloro-1H-imidazol-5-yl)phenyl]carbamate dihydrochloride] | 94 µM | 0.0022 µM | > 100 µM
10 | CS(=O)(=O)N1CCC([C@H]2C[C@@H](C(=O)Nc3ccc(C(=O)O)cc3)N(C(=O)c3ccc(C(=N)N)cc3)C2)CC1 [Example 111, 4-[({(2S,4R)-1-(4-carbamimidoylbenzoyl-4-[1-(methylsulfonyl)-4-piperidinyl]-2-pyrrolidinyl}carbonyl)amino]benzoic acid hydrochloride] | > 100 µM | 0.0085 µM | –
11 | COC(=O)Nc1ccc(-c2[nH]c([C@@H]3C[C@H](C4CCN(S(C)(=O)=O)CC4)CN3C(=O)[C@H]3CC[C@H]([C@H](C)N)CC3)nc2Cl)cc1 [Example 86, methyl [4-(2-{(2S,4R)-1-({trans-4-[(1S)-1-aminoethyl]cyclohexyl}carbonyl)-4-[1-(methylsulfonyl)-4-piperidinyl]-2-pyrrolidinyl}-4-chloro-1H-imidazol-5-yl)phenyl]carbamate bis(trifluoroacetate)] | > 100 µM | 0.0099 µM | > 100 µM
12 | CS(=O)(=O)N1CCN([C@H]2C[C@@H](C(=O)Nc3ccc(C(=O)O)cc3)N(C(=O)C3CCN(C(=N)N)CC3)C2)CC1 [Example 9, 4-[({(2S,4S)-1-[(1-carbamimidoyl-4-piperidinyl)carbonyl]-4-[4-(methylsulfonyl)-1-piperazinyl]-2-pyrrolidinyl}carbonyl)amino]benzoic acid bis(trifluoroacetate)] | > 100 µM | 0.017 µM | > 100 µM
13 | COC(=O)Nc1ccc(-c2cnc([C@@H]3C[C@H](C4CCN(S(C)(=O)=O)CC4)CN3C(=O)C3CCN(C(=N)N)CC3)[nH]2)cc1 [Example 69, methyl [4-(2-{(2S,4R)-1-[(1-carbamimidoyl-4-piperidinyl)carbonyl]-4-[1-(methylsulfonyl)-4-piperidinyl]-2-pyrrolidinyl}-1H-imidazol-5-yl)phenyl]carbamate dihydrochloride] | > 100 µM | 0.0074 µM | > 100 µM
14 | O=C(Nc1ccc2nn[nH]c2c1)[C@@H]1C[C@H](N2CCOCC2)CN1C(=O)/C=C/c1cc(Cl)ccc1-n1cnnn1 [Example 43, (2S,4S)—N-(1H-benzotriazol-6-yl)-1-{(2E)-3-[5-chloro-2-(1H-tetrazol-1-yl)phenyl]-2-propenoyl}-4-(4-morpholinyl)-2-pyrrolidinecarboxamide trifluoroacetate] | > 100 µM | 0.011 µM | > 100 µM
15 | C[C@H]1CN([C@H]2C[C@@H](C(=O)Nc3ccccc3)N(C(=O)/C=C/c3cc(Cl)ccc3-n3cnnn3)C2)CCN1S(N)(=O)=O [Example 57, (2S,4S)-1-{(2E)-3-[5-chloro-2-(1H-tetrazol-1-yl)phenyl]-2-propenoyl}-4-[(3S)-3-methyl-4-sulfamoyl-1-piperazinyl]-N-phenyl-2-pyrrolidinecarboxamide trifluoroacetate] | > 100 µM | 0.027 µM | > 100 µM
16 | O=C(O)c1ccc(NC(=O)[C@@H]2C[C@H](N3CCOCC3)CN2C(=O)/C=C/c2cc(Cl)ccc2-n2cnnn2)cc1 [Example 37, 4-({[(2S,4S)-1-{(2E)-3-[5-chloro-2-(1H-tetrazol-1-yl)phenyl]-2-propenoyl}-4-(4-morpholinyl)-2-pyrrolidinyl]carbonyl}amino)benzoic acid trifluoroacetate] | > 100 µM | 0.013 µM | > 100 µM
17 | COC(=O)Nc1ccc(-c2[nH]c([C@@H]3C[C@H](C4CCN(S(C)(=O)=O)CC4)CN3C(=O)c3ccc(NC(=N)N)cc3)nc2Cl)cc1 [Example 79, methyl [4-(2-{(2S,4R)-1-(4-carbamimidamidobenzoyl)-4-[1-(methylsulfonyl)-4-piperidinyl]-2-pyrrolidinyl}-4-chloro-1H-imidazol-5-yl)phenyl]carbamate bis(trifluoroacetate)] | 40 µM | 0.0065 µM | > 100 µM
18 | COC(=O)Nc1ccc(-c2[nH]c([C@@H]3C[C@H](C4CCN(S(C)(=O)=O)CC4)CN3C(=O)/C=C/c3cc(Cl)ccc3-n3cnnn3)nc2Cl)cc1 [Example 94, methyl [4-(4-chloro-2-{(2S,4R)-1-{(2E)-3-[5-chloro-2-(1H-tetraol-1-yl)phenyl]-2-propenoyl}-4-[1-(methylsulfonyl)-4-piperidinyl]-2-pyrrolidinyl}-1H-imidazol-5-yl)phenyl]carbamate] | > 33 µM | 0.0054 µM | > 33 µM
